# Experimental data from patent publication US20040127518A1, “Modulation of anxiety through blockade of anandamide hydrolysis” (priority 2002, published 2004).
# Where a name gives a salt, the structure may show the parent alone. Read-outs that look alike come from different tables or passages of the source.
# Tests used:
# [1] = molecular target: T1, FAAH (Rattus norvegicus, UniProt P97612); experiment: biochemical; format: biochemical; parameters: from tissue; host or cells: rat brain (membrane fraction of homogenate; Wistar rats)
# T1 sequence (P97612 1-579): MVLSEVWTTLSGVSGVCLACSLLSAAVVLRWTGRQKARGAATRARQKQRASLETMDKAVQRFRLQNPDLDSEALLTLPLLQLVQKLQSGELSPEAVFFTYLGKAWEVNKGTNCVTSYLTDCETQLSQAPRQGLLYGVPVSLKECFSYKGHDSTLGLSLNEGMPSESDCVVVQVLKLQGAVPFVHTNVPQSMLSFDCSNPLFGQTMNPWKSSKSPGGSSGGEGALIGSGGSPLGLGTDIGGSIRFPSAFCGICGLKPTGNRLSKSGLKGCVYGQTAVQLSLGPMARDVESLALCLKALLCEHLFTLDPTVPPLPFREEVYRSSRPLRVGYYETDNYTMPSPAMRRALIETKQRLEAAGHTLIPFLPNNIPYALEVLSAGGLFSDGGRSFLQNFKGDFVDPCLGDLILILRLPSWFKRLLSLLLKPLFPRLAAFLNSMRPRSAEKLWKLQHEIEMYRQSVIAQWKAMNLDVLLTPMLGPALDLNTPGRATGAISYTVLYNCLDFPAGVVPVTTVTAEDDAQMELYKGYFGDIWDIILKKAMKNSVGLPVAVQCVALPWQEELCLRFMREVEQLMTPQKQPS
# [2] = molecular target: electric eel acetylcholinesterase (Electrophorus electricus, UniProt O42275); experiment: biochemical
# Sequence of electric eel acetylcholinesterase (O42275 whole entry): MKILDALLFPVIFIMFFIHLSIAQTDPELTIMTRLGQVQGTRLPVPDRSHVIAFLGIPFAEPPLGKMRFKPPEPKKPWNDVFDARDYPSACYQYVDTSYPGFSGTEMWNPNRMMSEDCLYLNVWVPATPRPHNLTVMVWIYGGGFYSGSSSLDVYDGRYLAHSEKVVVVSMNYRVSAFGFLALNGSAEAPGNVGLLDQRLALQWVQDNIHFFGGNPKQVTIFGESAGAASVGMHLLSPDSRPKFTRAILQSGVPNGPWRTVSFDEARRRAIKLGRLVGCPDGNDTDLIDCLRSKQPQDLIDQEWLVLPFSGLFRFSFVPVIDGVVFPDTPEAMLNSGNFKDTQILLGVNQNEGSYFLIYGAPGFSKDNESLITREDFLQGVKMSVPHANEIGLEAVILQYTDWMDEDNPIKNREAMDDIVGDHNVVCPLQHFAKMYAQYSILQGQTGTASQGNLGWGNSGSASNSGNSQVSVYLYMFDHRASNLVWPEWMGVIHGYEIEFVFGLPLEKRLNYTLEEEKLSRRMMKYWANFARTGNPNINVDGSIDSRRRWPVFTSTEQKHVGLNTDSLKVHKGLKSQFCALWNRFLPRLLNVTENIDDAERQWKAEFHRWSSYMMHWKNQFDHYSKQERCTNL
# Text: We prepared cell fractions from rat brain homogenates, and assayed membrane FAAH activity and cytosol MGL activity using anandamide [ethanolamine-3H] (American Radiolabeled Chemicals, ARC (St. Louis Mo.), 60 Ci/mmol) and 2-mono-oleoyl-glycerol-[glycerol-1,2,3^−3H] (ARC, St. Louis Mo., 20 Ci/mmol), respectively, as substrates (Dinh, T. Proc. Natl. Acad. Sci. U.S.A. (2002)). We conducted [^3H]anandamide transport assays in human astrocytoma cells (Piomelli, D. et al., Proc. Natl. Acad. Sci. U.S.A., 96, 5802-5807 (1999)); CB1 and CB2 binding assays in rat cerebellar membranes and CB2-overexpressing Chinese hamster ovary cells (Receptor Biology-Perkin Elmer, Wellesley, Mass.), respectively, using [^3H]WIN-55212-2 (NEN-Dupont, Boston, Mass., 40-60 Ci/mmol) as a ligand (Devane, W. A. et al. Science, 258, 1946-1949 (1992)); cholinesterase assays with a commercial kit (Sigma, St. Louis, Mo.), using purified enzymes (electric eel acetylcholinesterase type V-S and horse serum cholinesterase; both from Sigma, St. Louis, Mo.) and following manufacturer's instructions.
# [3] = Inhibition of Amidohydrolase IC50(μM)
# [4] = Table 4, FAAH IC50, read-out: Inhibition of Amidohydrolase IC50
# [5] = Table 5, rat brain membranes, [3H]anandamide, read-out: IC50 (nM) ± S.E.M.
# [6] = Table 3, read-out: Amidohydrolase IC50
# [7] = Table 6, meta-substituted derivatives, read-out: pIC50 obsd (converted)
smiles,measurement,setting,value
O=C(NC1CCCCC1)Sc1ccc2ccccc2c1 [PL#52],IC50,[1]; [3],15 µM
O=C(NC1CCCCC1)Oc1cccc(-c2cccc(F)c2)c1 [PL#47],IC50,[1]; [4],0.092 µM
O=C(NC1CCCCC1)Oc1ccc(/C=C\c2ccccc2)cc1 [PL#25],IC50,[1]; [3],0.24 µM
CC1=CC(C)(C)N(C(=O)NC2CCCCC2)c2cc(C)c(C)cc21 [PL#19],IC50,[1]; [4],> 30 µM
Cc1ccc(OC(=O)NC2CCCCC2)cc1-c1ccccc1 [PL#48],IC50,[1]; [4],0.2 µM
O=C(NC(=O)c1ccc(OC(=O)NC2CCCCC2)cc1-c1ccccc1)NC1CCCCC1 [PL#50],IC50,[1]; [4],3.1 µM
NC(=O)c1ccc(-c2cccc(OC(=O)NC3CCCCC3)c2)cc1 [Compound 3c],IC50,[1]; [5],5.91 µM
"CNC(=O)Oc1ccc2c(c1)[C@@]1(C)CCN(C)[C@H]1N2C [PL#16, (−)-Physostigmine sulfate, reference compound]",IC50,[1]; [6],> 30 µM
same,IC50,[1]; [4],> 30 µM
Nc1ccc(-c2cccc(OC(=O)NC3CCCCC3)c2)cc1 [PL#39],IC50,[1]; [3],0.51 µM
Cc1ccc(-c2cccc(OC(=O)NC3CCCCC3)c2)cc1 [Compound 3b],IC50,[1]; [5],0.155 ± 0.021 µM
Nc1ccc(-c2ccccc2)cc1OC(=O)NC1CCCCC1 [PL#61],IC50,[1]; [4],> 30 µM
"CNC(=O)Oc1ccc2ccccc2c1 [PL#4, 2-naphtyl-N-methylcarbamate]",IC50,"[1]; Table 1, rat brain membranes, mean of at least three experiments, read-out: IC50",18.6 µM
same,IC50,[1]; [6],18.7 µM
same,IC50,[1]; [4],18.6 µM
same,IC50,"[1]; rat brain membranes, mean±SEM, n=3, read-out: IC50",18.6 ± 0.7 µM
same,IC50,[2],> 30000 nM
CCCCNC(=O)Nc1cccc2ccccc12 [PL#23],IC50,[1]; [4],> 30 µM
"O=C(NC1CCCCC1)Oc1ccc2ccccc2c1 [PL#11, 2-naphthyl N-cyclohexylcarbamate]",IC50,[1]; [6],0.33 µM
same,IC50,[1]; [4],0.33 µM
same,IC50,"[1]; rat brain membranes, read-out: IC50",0.324 ± 0.031 µM
same,IC50,[2],> 30000 nM
O=C(NC1CCCCC1)Oc1cccc(-c2ccc(C(F)(F)F)cc2)c1 [PL#38],IC50,[1]; [3],1.6 µM
O=C(NC1CCCCC1)Oc1cccc(-c2cccc(OC(=O)NC3CCCCC3)c2)c1 [Compound 3l],IC50,[1]; [5],0.361 ± 0.137 µM
same,IC50,[1]; [7],0.363 µM
"O=C(Oc1ccccc1)N1CCCCC1 [PL#1, 1-phenyl-N-piperidinecarboxylate]",IC50,[1]; [6],> 30 µM
same,IC50,[1]; [4],> 30 µM
same,IC50,[2],> 30000 nM
Cc1ccc(-c2cccc(OC(=O)NC3CCCCC3)c2)cc1 [PL#37],IC50,[1]; [4],0.23 µM
CCCc1cccc(-c2cccc(OC(=O)NC3CCCCC3)c2)c1 [PL#62],IC50,[1]; [3],0.08 µM
CC(=O)c1cccc(-c2cccc(OC(=O)NC3CCCCC3)c2)c1 [Compound 3s],IC50,[1]; [5],0.0091 ± 0.0005 µM
same,IC50,[1]; [7],0.00912 µM
O=C(NC1CCCCC1)Oc1cccc(-c2cccc(Oc3ccccc3)c2)c1 [#35],IC50,[1]; [4],2.6 µM
Nc1ccc(OC(=O)NC2CCCCC2)cc1-c1ccccc1 [PL#59],IC50,[1]; [4],0.05 µM
N#Cc1cccc(-c2cccc(OC(=O)NC3CCCCC3)c2)c1 [Compound 3t],IC50,[1]; [5],0.0339 ± 0.007 µM
same,IC50,[1]; [7],0.0339 µM
O=C(NC1CCCCC1)Oc1cccc(-c2cccc([N+](=O)[O-])c2)c1 [Compound 3q],IC50,[1]; [5],0.0496 ± 0.002 µM
same,IC50,[1]; [7],0.0501 µM
O=C(NC1CCCCC1)Oc1cccc(-c2cccc(O)c2)c1 [Compound 3u],IC50,[1]; IC50 (nM) ± S.E.M.,0.00865 ± 0.0001 µM
same,IC50,[1]; pIC50 obsd,0.00871 µM
Nc1cccc(-c2cccc(OC(=O)NC3CCCCC3)c2)c1 [PL#45],IC50,[1]; [3],0.06 µM
O=C(NC1CCCCC1)Oc1cccc(-c2cccc(F)c2)c1 [Compound 3k],IC50,[1]; [5],0.0966 ± 0.004 µM
same,IC50,[1]; [7],0.0955 µM
O=C(Nc1ccccc1)OC1CCCCC1 [PL#56],IC50,[1]; [4],3.1 µM
CCc1ccc2cc(OC(=O)NC3CCCCC3)ccc2c1 [PL#28],IC50,[1]; [3],3 µM
"O=C(Nc1ccc(F)cc1)Oc1ccc(OCc2ccccc2)cc1 [PL#8, 4-(benzyloxy) phenyl N-(4-fluorophenyl)carbamate]",IC50,[1]; [6],> 30 µM
same,IC50,[1]; [4],> 30 µM
same,IC50,[2],> 30000 nM
O=C(NC1CCCCC1)Oc1cccc(-c2cccc(-c3ccccc3)c2)c1 [Compound 3n],IC50,[1]; [5],0.565 ± 0.042 µM
same,IC50,[1]; [7],0.562 µM
NC(=O)c1ccc(OC(=O)NC2CCCCC2)cc1-c1ccccc1 [PL#49],IC50,[1]; [4],0.2 µM
CCCc1cccc(-c2cccc(OC(=O)NC3CCCCC3)c2)c1 [Compound 3p],IC50,[1]; IC50 (nM) ± S.E.M.,0.11 ± 0.016 µM
same,IC50,[1]; pIC50 obsd,0.11 µM
O=C(NC(=O)c1ccc(-c2cccc(OC(=O)NC3CCCCC3)c2)cc1)NC1CCCCC1 [PL#42],IC50,[1]; [3],~30 µM
